Molecules are shown by their SMILES.

Here are results for three molecules from patent publication US4145430A, “Beta-lactam compounds, preparation and use” (Beecham Group Limited, priority 1977, dated 1979).

Data set [1] addresses lactamase from Ps. aeruginosa. Kind of data set: β-lactamase inhibition I50. The class given is biochemical. The arrangement: unit not given here. The source says: The I50 values obtained for the product of this example against certain common gram positive and gram negative bacteria were as follows: […]
For data set [2], the target named is T1, β-lactamase from Enterobacter cloacae P99 (Enterobacter cloacae, UniProt P05364).
T1 construct: host or cells: Enterobacter cloacae P99 (the producing strain)
T1 sequence (P05364 21-381): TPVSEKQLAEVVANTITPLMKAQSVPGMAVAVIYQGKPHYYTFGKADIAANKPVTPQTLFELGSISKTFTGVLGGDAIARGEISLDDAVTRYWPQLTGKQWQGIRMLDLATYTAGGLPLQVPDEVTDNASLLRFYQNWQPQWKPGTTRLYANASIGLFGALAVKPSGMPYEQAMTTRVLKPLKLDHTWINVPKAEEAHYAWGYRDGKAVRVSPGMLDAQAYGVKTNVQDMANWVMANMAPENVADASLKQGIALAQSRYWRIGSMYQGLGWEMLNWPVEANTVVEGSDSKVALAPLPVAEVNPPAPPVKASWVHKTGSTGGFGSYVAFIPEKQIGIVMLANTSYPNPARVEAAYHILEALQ
The data set is described as follows: β-lactamase inhibition I50. The class given is biochemical. The procedure:
(§1) The I50 values obtained for the product of this example against certain common gram positive and gram negative bacteria were as follows:
(§2) The compound from Example 1 was a potent inhibitor of β-lactamase enzymes as illustrated in the following Table. I50 values were determined using the process described in Belgium Pat. No. 827,926.

The target of data set [3] is T2, β-lactamase from E. coli JT4 (Escherichia coli, UniProt P62593).
T2 construct: host or cells: E. coli JT4 (the producing strain)
T2 sequence (P62593 24-286 limits assumed): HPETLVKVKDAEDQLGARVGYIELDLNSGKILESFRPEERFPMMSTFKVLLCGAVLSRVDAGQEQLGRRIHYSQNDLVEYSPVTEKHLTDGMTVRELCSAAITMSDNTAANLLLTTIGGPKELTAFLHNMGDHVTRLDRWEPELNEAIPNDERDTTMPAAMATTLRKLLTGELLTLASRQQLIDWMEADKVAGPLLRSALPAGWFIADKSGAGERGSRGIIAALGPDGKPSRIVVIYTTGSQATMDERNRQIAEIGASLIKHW
Kind of data set: β-lactamase inhibition I50. The class given is biochemical. The procedure:
as §1, §2

The target in data set [4] is β-lactamase from Proteus mirabilis C889. The data set is described as follows: β-lactamase inhibition I50. The class given is biochemical. The procedure:
as §1, §2

Data set [5] addresses β-lactamase from Pseudomonas aeruginosa A. The data set is described as follows: β-lactamase inhibition I50. The class given is biochemical. The procedure: as §2
In data set [6] the target is T3, β-lactamase from Ps. aeruginosa Dalgleish (Pseudomonas aeruginosa, UniProt P16897).
T3 construct: host or cells: Pseudomonas aeruginosa Dalgleish (the producing strain)
T3 sequence (P16897 18-288): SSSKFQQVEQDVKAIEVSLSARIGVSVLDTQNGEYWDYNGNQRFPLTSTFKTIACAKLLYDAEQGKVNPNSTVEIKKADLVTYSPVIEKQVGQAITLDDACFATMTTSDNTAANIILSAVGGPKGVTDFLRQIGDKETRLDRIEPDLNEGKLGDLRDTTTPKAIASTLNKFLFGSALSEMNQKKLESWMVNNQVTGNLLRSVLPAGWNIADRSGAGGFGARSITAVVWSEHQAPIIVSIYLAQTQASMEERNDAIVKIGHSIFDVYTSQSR
Kind of data set: β-lactamase inhibition I50. The class given is biochemical. The procedure:
as §2

A short description of data set [7]: Stability when free of solvent. The class given is physicochemical. The procedure:
The compound of the formula (V) tends to polymerise when free of solvent at room temperature so that it must either be stored in solution (optionally with hydroquinone) or at a low temperature. Preferably the compound of the formula (V) is used shortly after its preparation.
For determination of spectroscopic and biological properties aliquots of the toluene solution were treated in a manner similar to that described above for measurement of the nmr spectrum. The title compound was characterised by the following spectroscopic properties. λmax (EtOH): 277.5 nm. .nu.max (CHCl3): 1797 (β-lactam C= O ), 1670 and 1640 (C=C)cm^-1. δ (CDCl3): 3.36 (d, J 17Hz, 1H, C(6)H), 3.63 (dd, J 17, 2Hz, 1H, C(6)H), 5.22 (dd, J 10.5, 1.0Hz, 1H, olefinic H), 5.49 (dd, J 16, 1.0Hz, 1H, olefinic H), 5.80 (s, 2H, C(5)H and C(2)H), 6.10 (dd, J 16, 10.5Hz, 1H, olefinic H).

For data set [8], the system named is Candida albicans BRL 1003. The data set is described as follows: Antifungal activity, paper tape on seeded blood agar base plate. As to conditions: BRL1003; loading of 250 μg on paper tape, Candida albicans BRL 1003, 28° C., 24 hours; read-out: zone of inhibition diameter. The class given is cell-based. The procedure:
The Z-isomer is able to inhibit the growth of Candida albicans. Thus, a loading of 250 μg of the Z-isomer on a paper tape which was contacted with a blood agar base plate seeded with Candida albicans BRL 1003 and incubated at 28° C. for 24 hours produced a zone of inhibition with diameter 22.1 mm.

One may read the IC50 as the point on the concentration scale where inhibition reaches its midpoint. Regarding `CC=C1CN2C(=O)C[C@H]2O1` [Example 4, (5R)-3-ethylidene-4-oxa-1-azabicyclo[3.2.0]heptan-7-one], the I50 in data set [1] amounted to 0.86; in data set [4] it was 1.6 µg/mL. The IC50 is 2010 nM in data set [2] (lactamase from Enterobacter cloacae P 99) and 1580 nM in data set [3].

On to `C=CC1=CN2C(=O)C[C@H]2O1` [Example 1, (5R)-7-oxo-3-vinyl-4-oxa-1-azabicyclo[3.2.0]hept-2-ene], for which the I50 in data set [5] amounted to 0.06 µg/mL; in data set [4] it was 0.058 µg/mL. In addition, the IC50 in data set [6] was 292 nM; in data set [2] (β-lactamase from Enterobacter cloacae P99), 190 nM; in data set [3], 408 nM. In addition, the “stability when free of solvent” value in data set [7] is given as “readily polymerises”.

For orientation: zone of inhibition means the extent of the growth-free halo in a diffusion test. On to `C/C=C1/CN2C(=O)C[C@H]2O1` [Z-isomer, Z-(5R)-3-ethylidene-4-oxa-1-azabicyclo[3.2.0]heptan-7-one], for which the zone of inhibition at 250 µg/disc in data set [8] worked out at 22.1 mm.
